Laboratory results as given in patent US9556159B2, “Renin inhibitor” (MITSUBISHI TANABE PHARMA CORPORATION, priority 2012, dated 2017).

Molecular target: T1, Recombinant human renin (Homo sapiens, UniProt P00797)
T1 sequence (P00797 67-406): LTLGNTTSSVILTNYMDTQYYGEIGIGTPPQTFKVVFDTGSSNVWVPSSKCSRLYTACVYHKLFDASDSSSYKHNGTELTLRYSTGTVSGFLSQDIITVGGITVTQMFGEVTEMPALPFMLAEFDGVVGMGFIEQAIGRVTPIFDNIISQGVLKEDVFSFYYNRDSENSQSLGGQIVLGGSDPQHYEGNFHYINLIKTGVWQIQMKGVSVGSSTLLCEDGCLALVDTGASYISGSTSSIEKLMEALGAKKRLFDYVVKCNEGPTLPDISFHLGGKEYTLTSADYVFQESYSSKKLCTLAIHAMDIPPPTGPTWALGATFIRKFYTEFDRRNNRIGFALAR
Assay: Inhibitory activity against human renin (fluorogenic peptide substrate)
Assay type: biochemical
Conditions: 37° C. for 1 hour, read-out: IC50
Method: Inhibitory Activity Against Human Renin
A substrate of synthetic peptide (Nma-KHPFH LVIHK(Dnp)-NH2) and test compound were mixed, and fluorescence intensity was assayed using a fluorophotometer before starting an enzymatic reaction (exciting wavelength: 340 nm, measuring wavelength: 460 nm). Recombinant human renin was added and the mixture was incubated at 37° C. for 1 hour, and the fluorescence intensity was measured after the reaction using a fluorophotometer (exciting wavelength: 340 nm, measuring wavelength: 460 nm).

Point of comparison: `COCCCCn1cc([C@@H](C)N(C(=O)[C@H]2CNCCO2)C2CC2)c2ncc(C)cc21` [Example 20], IC50 0.5 nM. Against it:
- COC[C@@H]1CNC[C@H](C(=O)N(C2CC2)[C@H](C)c2nn(CCCNC(=O)OC)c3nc(C)ccc23)O1 [Example 1, methyl (3-{3-[(1R)-1-(cyclopropyl{[(2R,6S)-6-(methoxymethyl)morpholin-2-yl]carbonyl}amino)ethyl]-6-methyl-1H-pyrazolo[3,4-b]pyridin-1-yl}propyl)carbamate] — 1.7-fold lower, 0.3 nM
- COC[C@@H]1CNC[C@H](C(=O)N(C2CC2)[C@H](C)c2cc(CCCNC(=O)OC)nc(OC)c2)O1 [Example 2, methyl (3-{4-[(1R)-1-(cyclopropyl{[(2R,6S)-6-(methoxymethyl)morpholin-2-yl]carbonyl}amino)ethyl]-6-methoxypyridin-2-yl}propyl)carbamate] — 1.7-fold lower, 0.3 nM
- COC(=O)NCCCc1cc([C@@H](C)N(C(=O)[C@H]2CNC[C@@H](C(=O)OC)O2)C2CC2)sc1-c1ccccc1 [Example 3, methyl (2S,6R)-6-{cyclopropyl[(1R)-1-(4-{3-[(methoxycarbonyl)amino]propyl}-5-phenylthiophen-2-yl)ethyl]carbamoyl}morpholine-2-carboxylate] — within 1.5-fold, 0.6 nM
- COC(=O)NCCCn1cc([C@@H](C)N(C(=O)[C@H]2CNCCO2)C2CC2)nc1OC(C)C [Example 5, methyl (3-{4-[(1R)-1-{cyclopropyl[(2R)-morpholin-2-ylcarbonyl]amino}ethyl]-2-(propan-2-yloxy)-1H-imidazol-1-yl}propyl)carbamate] — within 1.5-fold, 0.7 nM
- COC(=O)NCCCn1cc([C@@H](C)N(C(=O)[C@H]2CNCCO2)C2CC2)nc1C1CCCCC1 [Example 6, methyl (3-{2-cyclohexyl-4-[(1R)-1-{cyclopropyl[(2R)-morpholin-2-ylcarbonyl]amino}ethyl]-1H-imidazol-1-yl}propyl)carbamate] — 1.7-fold lower, 0.3 nM
- CC(=O)NCCn1nc(C)c2ccc([C@@H](C)N(C(=O)[C@H]3CNCCO3)C3CC3)cc21 [Example 8] — 8.8-fold higher, 4.4 nM
- COC(=O)NCCn1nc(C)c2ccc([C@@H](C)N(C(=O)[C@H]3CNCCO3)C3CC3)cc21 [Example 9] — 15-fold higher, 7.3 nM
- COCCCc1nn(C)c2ccc([C@@H](C)N(C(=O)[C@H]3CNCCO3)C3CC3)cc12 [Example 15] — 5.2-fold higher, 2.6 nM
- COCCCOc1cc([C@@H](C)N(C(=O)[C@H]2CNCCO2)C2CC2)cc2c1OCCC2 [Example 19] — 4.8-fold higher, 2.4 nM
- COCCCn1ncc2c(F)cc([C@@H](C)N(C(=O)[C@H]3CNCCO3)C3CC3)cc21 [Example 23] — 4.8-fold higher, 2.4 nM
- COCCCCc1cc(C(C)N(C(=O)[C@H]2CNCCO2)C2CC2)cnc1OC (some centres unmarked) [Example 25] — 13-fold higher, 6.3 nM
- COCCCc1nn(C)c2ccc([C@@H](C)N(C(=O)[C@H]3CNCCO3)C3CC3)cc12 [Example 26] — 6.8-fold higher, 3.4 nM
- COc1ccc([C@@H](C)N(C(=O)[C@H]2CNCCO2)C2CC2)cc1CCCNC(C)=O [Example 27] — 17-fold higher, 8.3 nM
- CNC(=O)NCCCn1nc([C@@H](C)N(C(=O)[C@H]2CNCCO2)C2CC2)c2ccc(C)cc21 [Example 28] — 14-fold higher, 7.1 nM
- COC(=O)NCCCn1nc([C@@H](C)N(C(=O)[C@H]2CNCCO2)C2CC2)c2ccc(C)cc21 [Example 29] — within 1.5-fold, 0.6 nM
- COCCCOc1nc([C@@H](C)N(C(=O)[C@H]2CNCCO2)C2CC2)cc2ccccc12 [Example 32] — 6.6-fold higher, 3.3 nM
- COCCCc1cn(C)c2cnc([C@@H](C)N(C(=O)[C@H]3CNCCO3)C3CC3)cc12 [Example 33] — 11-fold higher, 5.3 nM
- CCc1cnc2c([C@@H](C)N(C(=O)[C@H]3CNCCO3)C3CC3)cn(CCCCOC)c2c1 [Example 35] — within 1.5-fold, 0.4 nM
- COCCCCn1cc([C@@H](C)N(C(=O)[C@H]2CNCCO2)C2CC2)c2ncc(C3CC3)cc21 [Example 36] — the same, 0.5 nM
- COCCCc1cn(C)c2ccc([C@@H](C)N(C(=O)[C@H]3CNCCO3)C3CC3)nc12 [Example 39] — 4-fold higher, 2 nM
- COCCCCn1cc([C@@H](C)N(C(=O)[C@H]2CNCCO2)C2CC2)c2ncc(OC)cc21 [Example 40] — within 1.5-fold, 0.7 nM
- COC(=O)NCCCn1nc([C@@H](C)N(C(=O)[C@H]2CNCCO2)C2CC2)c2ccc(OC)cc21 [Example 41] — within 1.5-fold, 0.7 nM
